Among the data in PubChem BioAssay (NCI) are TGI values, retold here.

Structures are written as SMILES.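 How tested: cells in 96-well plates exposed to compound for 48 hours at five concentrations. TGI: concentration producing complete growth inhibition.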

Among the test systems are SK-MEL-5 melanoma; PC-3 prostate; ACHN renal; RPMI-8226 leukemia; K-562 leukemia; HL-60(TB) leukemia; 786-0 renal; RXF 393 renal; OVCAR-8 ovarian; A498 renal; IGROV1 ovarian.
Assay in all cases: NCI tumour cell line growth inhibition, 48 h

`CN1CN(c2ccccc2)C2(CCNCC2)C1=O`: the TGI in the test with SK-MEL-5 melanoma, with PC-3 prostate, in the test with ACHN renal, with RPMI-8226 leukemia, in the test on K-562 leukemia and with HL-60(TB) leukemia was more than 100 µM throughout. Besides, the TGI in the test on 786-0 renal, in the test on RXF 393 renal, in the test on OVCAR-8 ovarian, with A498 renal and with IGROV1 ovarian was more than 100 µM throughout.

As for `CCCCc1ccc(Nc2nc3c(ncn3C3OC(COC(C)=O)C(OC(C)=O)C3OC(C)=O)c(=O)[nH]2)cc1` (stereo unspecified), the TGI in the test with SK-MEL-5 melanoma is 31.1 µM; with PC-3 prostate, 48.1 µM; in the test on ACHN renal it was more than 100 µM; in the test with RPMI-8226 leukemia it was 48.9 µM; in the test on K-562 leukemia it was 38.5 µM; in the test on HL-60(TB) leukemia, 55.6 µM. The TGI with 786-0 renal is 32 µM; in the test on RXF 393 renal, 41.7 µM; in the test with OVCAR-8 ovarian it was 34.7 µM; with A498 renal, more than 100 µM; with IGROV1 ovarian it was 37.7 µM.

As for `O=C1CCc2c3c(c4c([nH]c5ccccc54)c2CC1)C(=O)NC3=O`, the TGI in the test on SK-MEL-5 melanoma was 5.77 µM; with PC-3 prostate, 70.6 µM; with ACHN renal, 24.7 µM; with RPMI-8226 leukemia, 64.1 µM; in the test with K-562 leukemia it was more than 100 µM; with HL-60(TB) leukemia, 17.2 µM. Further, the TGI in the test with 786-0 renal was more than 100 µM; with RXF 393 renal it was 32.2 µM; with OVCAR-8 ovarian, 38.2 µM; with A498 renal, 13.5 µM; with IGROV1 ovarian, 13.7 µM.

As for `CCOC(=O)/C(C(=S)NC)=C(/N)N1CCCC1`, the TGI in the test on SK-MEL-5 melanoma, in the test with PC-3 prostate, in the test with ACHN renal, in the test with RPMI-8226 leukemia, in the test on K-562 leukemia and with HL-60(TB) leukemia was more than 100 µM throughout. Besides, the TGI with 786-0 renal, in the test with RXF 393 renal, with OVCAR-8 ovarian, with A498 renal and in the test on IGROV1 ovarian was more than 100 µM throughout.

For `CC(C)(C)OC(=O)N1C(C2=COc3ccccc3O2)=COc2ccccc21`, the TGI was 64.4 µM in the test with SK-MEL-5 melanoma; more than 100 µM with PC-3 prostate; 75.3 µM in the test on ACHN renal; 43.5 µM in the test on RPMI-8226 leukemia; 57 µM in the test on K-562 leukemia; 45.5 µM in the test on HL-60(TB) leukemia. The TGI in the test with 786-0 renal is more than 100 µM; in the test with RXF 393 renal it was 22.5 µM; in the test on OVCAR-8 ovarian it was more than 100 µM; with A498 renal it was 40.2 µM; in the test on IGROV1 ovarian, more than 100 µM.

Take `CCCCC1Cc2cc(O)ccc2-c2n1c1cc(O)ccc1[n+]2C` (stereo unspecified) (tested in a mixture with another compound): the TGI is 22 µM with SK-MEL-5 melanoma; more than 100 µM in the test on PC-3 prostate; 98.7 µM in the test on ACHN renal; 75.1 µM with RPMI-8226 leukemia; more than 100 µM with K-562 leukemia; more than 86.4 µM with HL-60(TB) leukemia. Moreover, the TGI in the test with 786-0 renal was more than 100 µM; with RXF 393 renal, more than 90.3 µM; in the test with OVCAR-8 ovarian, more than 100 µM; in the test with A498 renal, more than 100 µM; in the test on IGROV1 ovarian, more than 83.8 µM.

Consider `CCN(CC)CC(O)c1ccc2ccc3ccccc3c2c1` (stereo unspecified), for which the TGI in the test on SK-MEL-5 melanoma was found to be 27.3 µM; in the test on PC-3 prostate, 30.1 µM; in the test with ACHN renal it was 27.3 µM; in the test with RPMI-8226 leukemia, 38.2 µM; in the test with K-562 leukemia it was 32.5 µM; in the test on HL-60(TB) leukemia, 30.1 µM. The TGI amounted to 25.6 µM with 786-0 renal; 31.4 µM with RXF 393 renal; 32 µM in the test with OVCAR-8 ovarian; 26.3 µM with A498 renal; 33 µM in the test on IGROV1 ovarian.

As to `Cc1c2c(c(C)c3c[n+](C)ccc13)Oc1ccccc1O2`, the TGI in the test with SK-MEL-5 melanoma was 42.5 µM; in the test with PC-3 prostate it was more than 76.7 µM; in the test on ACHN renal, more than 100 µM; in the test with RPMI-8226 leukemia, 12.7 µM; in the test with K-562 leukemia it was 35.4 µM; with HL-60(TB) leukemia, 39.4 µM. Further, the TGI with 786-0 renal was more than 100 µM; in the test on RXF 393 renal it was more than 100 µM; in the test with OVCAR-8 ovarian it was more than 54 µM; with A498 renal, more than 100 µM; with IGROV1 ovarian it was 50 µM.

Regarding `O=c1oc2ncccc2n1Cc1ccc([N+](=O)[O-])cc1`, the TGI in the test with SK-MEL-5 melanoma, in the test with PC-3 prostate, in the test with ACHN renal, in the test on RPMI-8226 leukemia, in the test on K-562 leukemia and with HL-60(TB) leukemia was more than 100 µM each time. The TGI with 786-0 renal, in the test on RXF 393 renal, in the test with OVCAR-8 ovarian, in the test with A498 renal and in the test on IGROV1 ovarian was more than 100 µM each time.

`CCN(CC)CCN1c2ccccc2Sc2ccc3ccccc3c21`: the TGI amounted to 10.2 µM with SK-MEL-5 melanoma; 19.5 µM in the test with PC-3 prostate; 29.2 µM in the test with ACHN renal; 10.7 µM with RPMI-8226 leukemia; 15.7 µM with K-562 leukemia; 15.1 µM in the test on HL-60(TB) leukemia. In addition, the TGI in the test on 786-0 renal turned out to be 23.9 µM; in the test on RXF 393 renal, 9.5 µM; in the test with OVCAR-8 ovarian, 26.8 µM; with A498 renal, 24.7 µM; in the test on IGROV1 ovarian it was 24.5 µM.

Consider `Cc1csc2c(P(=O)(OC(C)C)OC(C)C)c(-c3ccccc3)cn12`, for which the TGI with SK-MEL-5 melanoma is 29.7 µM; with PC-3 prostate, 28.7 µM; in the test with ACHN renal it was 28.3 µM; in the test with RPMI-8226 leukemia, 40.7 µM; in the test with K-562 leukemia it was 45.7 µM; in the test on HL-60(TB) leukemia it was 45.9 µM. Besides, the TGI in the test with 786-0 renal is 30.7 µM; in the test with RXF 393 renal it was 33.7 µM; in the test with OVCAR-8 ovarian it was 33 µM; in the test on A498 renal, 34.1 µM; in the test on IGROV1 ovarian it was 31.9 µM.

Take `O=C(CSc1nc2ccc(I)cc2c(=O)n1Cc1ccccc1)N/N=C/c1ccccc1`: the TGI in the test with SK-MEL-5 melanoma was more than 100 µM; in the test with PC-3 prostate it was 28.6 µM; in the test with ACHN renal, more than 100 µM; in the test on RPMI-8226 leukemia, more than 100 µM; in the test with K-562 leukemia it was more than 100 µM; in the test on HL-60(TB) leukemia it was more than 100 µM. In addition, the TGI in the test on 786-0 renal came out at 32.6 µM; in the test with RXF 393 renal, 26.7 µM; in the test with OVCAR-8 ovarian it was 60.5 µM; in the test with A498 renal, 43.7 µM; in the test with IGROV1 ovarian it was 36.1 µM.

Take `CCOC(=O)C(Cc1ccc2c(c1)CCC2)(Cc1ccc2c(c1)CCC2)C(=O)OCC`: the TGI with SK-MEL-5 melanoma, in the test on PC-3 prostate, in the test on ACHN renal, in the test with RPMI-8226 leukemia, in the test on K-562 leukemia and in the test with HL-60(TB) leukemia was more than 100 µM each time. The TGI with 786-0 renal is more than 100 µM; with RXF 393 renal, 89.9 µM; in the test on OVCAR-8 ovarian it was more than 100 µM; in the test with A498 renal, more than 100 µM; with IGROV1 ovarian, more than 100 µM.

Consider `Oc1c(C(O)(c2ccccc2)c2ccc3ccccc3c2O)ccc2ccccc12`, for which the TGI in the test on SK-MEL-5 melanoma was determined as 18 µM; in the test on PC-3 prostate, 20.7 µM; in the test on ACHN renal, 23.3 µM; with RPMI-8226 leukemia, 5.32 µM; in the test with K-562 leukemia it was 15.7 µM; in the test with HL-60(TB) leukemia, 13.9 µM. Further, the TGI in the test with 786-0 renal is more than 69 µM; with RXF 393 renal, 25.3 µM; in the test on OVCAR-8 ovarian it was 29.7 µM; in the test on A498 renal, 30.6 µM; with IGROV1 ovarian it was 24.7 µM.

Turning to `CCCCCCCCCc1cc(O)c(O)cc1CCCCCCCCC`, the TGI in the test with SK-MEL-5 melanoma, in the test on PC-3 prostate, with ACHN renal, in the test on RPMI-8226 leukemia, with K-562 leukemia and in the test with HL-60(TB) leukemia was more than 10 µM each time. Also, the TGI in the test on 786-0 renal, with RXF 393 renal, in the test on OVCAR-8 ovarian, in the test on A498 renal and in the test with IGROV1 ovarian was more than 10 µM each time.

On to `CN1CCc2c(sc3nc(Nc4ccccc4)n(N)c(=O)c23)C1`, for which the TGI in the test with SK-MEL-5 melanoma, with PC-3 prostate, in the test with ACHN renal, in the test on RPMI-8226 leukemia, with K-562 leukemia and in the test on HL-60(TB) leukemia was more than 100 µM throughout. Moreover, the TGI in the test with 786-0 renal, in the test with RXF 393 renal, in the test with OVCAR-8 ovarian, with A498 renal and in the test with IGROV1 ovarian was more than 100 µM each time.
